Laboratory results: patent publication US20230210999A1, “TARGETED PROTEASE DEGRADATION (TED) PLATFORM” (EUBULUS BIOTHERAPEUTICS INC., priority 2020, published 2023)
Read-outs that look alike come from different tables or passages of the source.

How the values were obtained:
Format in all cases: cell-based, human
MV4;11 cells = assay: Cell proliferation experiment (Alamar blue, 72 h), MV4;11; details: Homo sapiens
Method: (§1) Reagents: RPMI-1640 medium, McCoy's 5A medium, IMDM medium, MEM medium, L-15 medium, fetal bovine serum. Penicillin-Streptomycin double antibody, trypsin, etc., 2-mercaptoethanol, NEAA, pyruvate, etc.
(§2) The cells were cultured in conventional ways, and the cells should be passed at least 2 generations before plating. Cells at the logarithmic growth phase were collected, prepared into single cell suspensions and counted. The concentration of cells was adjusted to the desired concentration, and cells were inoculated into a 96-well cell culture plate at 100 μl per well. 100 μL of complete medium of the test compound were added to each well, set up 2 duplicate wells for each concentration, and diluted with a 5-fold gradient, and continued to culture for 72 h. All cells were subjected to IC50 test for corresponding samples. The experimental results are shown in Test Example 4.
(§3) The fluorescence intensity of each well was detected using the Alarm blue method, and IC50 was calculated.
(§4) IC50 was calculated according to the following formula:
(§5) Y=Max+(Min−Max)/[1+(X/IC50)×Slope]
(§6) wherein Min, Max and Slope represent the minimum, maximum and slope respectively.

Daudi cells = assay: Cell proliferation experiment, Daudi; details: Homo sapiens, Daudi, Daudi cells; read-out: Inhibitory activity IC50 on Daudi
Method: as §1, §2, §3, §4, §5, §6

NCIH82 cells = assay: Cell proliferation experiment, NCI-H82; details: Homo sapiens, NCI-H82, NCI-H82 cells; read-out: Inhibitory activity IC50 on NCI-H82
Method: as §1, §2, §3, §4, §5, §6

[1] = MV4-11, MV4;11 cells, read-out: Inhibitory activity IC50 on MV4;11

Structure (SMILES) | IC50 (MV4;11 cells; MV4-11, 72 h, MV4;11 cells, 72 h, read-out: Inhibitory activity IC50 of tested compounds on MV4;11 cells) [nM] | IC50 (Daudi cells) [nM] | IC50 (MV4;11 cells; [1]) [nM] | IC50 (NCIH82 cells) [nM]
O=C1CCC(N2Cc3c(C#CCNCCOCCOCCOCCNC(=O)[C@H]4CC[C@H](Oc5cccc(Cl)c5F)CC4Cc4cccc(Nc5nccs5)n4)cccc3C2=O)C(=O)N1 (stereo partly drawn) [Compound 860] | > 1000 | – | – | –
CC[C@@H]1C(=O)N(C)c2cnc(Nc3ccc(-c4cn(CCCOCCCNCCC#Cc5cccc6c5CN(C5CCC(=O)NC5=O)C6=O)nn4)cc3OC)nc2N1C1CCCC1 (stereo partly drawn) [UB-180938] | – | 10 to 100 | 10 to 100 | –
O=C1CCC(N2Cc3c(C#CCCNCCOCCn4cc(-c5ccc(Nc6ncc7c(n6)-c6ccc(Cl)cc6C(c6c(F)cccc6F)=NC7)cc5)nn4)cccc3C2=O)C(=O)N1 (stereo not drawn) [UB-180944] | – | > 1000 | 100 to 1000 | > 1000
O=C1CCC(N2Cc3c(NC(=O)CNCCOCCN4CCC(n5cc(-c6ccc(Nc7ncc8c(n7)-c7ccc(Cl)cc7C(c7c(F)cccc7F)=NC8)cc6)nn5)CC4)cccc3C2=O)C(=O)N1 (stereo not drawn) [UB-180945] | – | > 1000 | 100 to 1000 | > 1000
O=C1CCC(N2Cc3c(C#CCCNCCCOCCCn4cc(-c5ccc(Nc6ncc7c(n6)-c6ccc(Cl)cc6C(c6c(F)cccc6F)=NC7)cc5)nn4)cccc3C2=O)C(=O)N1 (stereo not drawn) [UB-180946] | – | > 1000 | 100 to 1000 | 100 to 1000
O=C1CCC(N2Cc3cc(NC(=O)CCOCCOCCOCCNC(=O)c4ccc(Nc5ncc6c(n5)-c5ccc(Cl)cc5C(c5c(F)cccc5F)=NC6)cc4)ccc3C2=O)C(=O)N1 (stereo not drawn) [UB-180947] | – | 100 to 1000 | 10 to 100 | > 1000
O=C1CCC(N2Cc3cc(NC(=O)CCOCCOCCOCCNC(=O)[C@]4(Cc5cccc(Nc6nccs6)n5)CC[C@@H](Oc5cccc(Cl)c5F)CC4)ccc3C2=O)C(=O)N1 (stereo partly drawn) [UB-180948] | – | > 1000 | 10 to 100 | > 1000
CCNC(=O)C#Cc1ccc2c(c1)NC(=O)/C2=C(\Nc1ccc(CNCCOCCOCCC(=O)N[C@H](C(=O)N2C[C@H](O)C[C@H]2C(=O)NCc2ccc(-c3scnc3C)cc2)C(C)(C)C)cc1)c1ccccc1 [UB-180951] | – | > 1000 | 100 to 1000 | 100 to 1000
CCNC(=O)C=C(Cl)c1ccc2c(c1)NC(=O)/C2=C(\Nc1ccc(CNCCOCCOCCOCCOCCC(=O)Nc2cccc3c2CN(C2CCC(=O)NC2=O)C3=O)cc1)c1ccccc1 (stereo not drawn) [UB-180952] | – | > 1000 | > 1000 | > 1000
O=C1CCC(N2Cc3cc(NC(=O)CNCCOCCOCCOCCNC(=O)[C@]4(Cc5cccc(Nc6nccs6)n5)CC[C@@H](Oc5cccc(Cl)c5F)CC4)ccc3C2=O)C(=O)N1 (stereo partly drawn) [UB-180953] | – | > 1000 | 100 to 1000 | > 1000
O=C1CCC(N2Cc3cc(NC(=O)CNCCOCCOCCOCCNC(=O)c4ccc(Nc5ncc6c(n5)-c5ccc(Cl)cc5C(c5c(F)cccc5F)=NC6)cc4)ccc3C2=O)C(=O)N1 (stereo not drawn) [UB-180954] | – | > 1000 | 100 to 1000 | > 1000
CCNC(=O)C#Cc1ccc2c(c1)NC(=O)/C2=C(\Nc1ccc(CNCCOCCOCCOCCOCCC(=O)N[C@H](C(=O)N2C[C@H](O)C[C@H]2C(=O)NCc2ccc(-c3scnc3C)cc2)C(C)(C)C)cc1)c1ccccc1 [UB-180955] | – | > 1000 | 100 to 1000 | > 1000
CCNC(=O)C#Cc1ccc2c(c1)NC(=O)/C2=C(\Nc1ccc(CNCCOCCOCCOCCOCCC(=O)Nc2cccc3c2CN(C2CCC(=O)NC2=O)C3=O)cc1)c1ccccc1 (stereo not drawn) [UB-180956] | – | > 1000 | 100 to 1000 | > 1000
CCNC(=O)C#Cc1ccc2c(c1)NC(=O)/C2=C(\Nc1ccc(CNCCOCCOCCOCCOCC(=O)N[C@H](C(=O)N2C[C@H](O)C[C@H]2C(=O)NCc2ccc(-c3scnc3C)cc2)C(C)(C)C)cc1)c1ccccc1 [UB-180958] | – | > 1000 | 100 to 1000 | > 1000
O=C1CCC(N2Cc3c(NC(=O)CCOCCOCCN[C@H]4CC[C@@H](NC(=O)c5ccc(Nc6ncc7c(n6)-c6ccc(Cl)cc6C(c6c(F)cccc6F)=NC7)cc5)CC4)cccc3C2=O)C(=O)N1 (stereo partly drawn) [UB-180959] | – | > 1000 | 100 to 1000 | > 1000
O=C1CCC(N2Cc3cc(NC(=O)CCOCCOCCN[C@H]4CC[C@@H](NC(=O)c5ccc(Nc6ncc7c(n6)-c6ccc(Cl)cc6C(c6c(F)cccc6F)=NC7)cc5)CC4)ccc3C2=O)C(=O)N1 (stereo partly drawn) [UB-180960] | – | > 1000 | 100 to 1000 | > 1000
CCNC(=O)C#Cc1ccc2c(c1)NC(=O)/C2=C(\Nc1ccc(CNCCOCCOCCOCCOCC(=O)Nc2cccc3c2CN(C2CCC(=O)NC2=O)C3=O)cc1)c1ccccc1 (stereo not drawn) [UB-180962] | – | > 1000 | 100 to 1000 | > 1000
